{"source": "patent US6706663B2", "about": "“Herbicidal 3-heterocyclic substituted benzisothiazole and benzisoxazole compounds” (Wyeth, priority 2000, dated 2004)", "key": {"ZEAMX (Corn, Field) [1]": {"test_system": "ZEAMX (Corn, Field)", "experiment": "Preemergence herbicidal evaluation", "format": "in vivo, Zea mays, L.", "conditions": "preemergence, rated 4-5 weeks after treatment"}, "ZEAMX (Corn, Field) [2]": {"test_system": "ZEAMX (Corn, Field)", "experiment": "Postemergence herbicidal evaluation", "format": "in vivo, Zea mays, L.", "outline": "(§1)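 Seedlings grown about two weeks in flats, sprayed, then kept under standard greenhouse care. Rated visually 4–5 weeks after treatment on a 0–9 scale (stand, vigour, malformation, size, chlorosis, overall appearance) relative to untreated control; repeat tests averaged.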"}, "[3]": {"test_system": "ECHORC (Echinochloa oryzoides)", "experiment": "Flooded paddy, preemergence weed control", "format": "in vivo, Echinochloa oryzoides (Ard.) Fritsch.", "conditions": "rated 3-4 weeks after treatment, 0-9 rating scale", "outline": "(§2)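 Visual 0–9 ratings versus controls scored stand, vigor, malformation, size, chlorosis and overall appearance. Plants grew from seeds or propagating organs sown 0.5 cm deep in silt loam, with water held 1.5–3 cm above the soil for the whole test under greenhouse care.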"}, "GALAP (Galium aparine) [4]": {"test_system": "GALAP (Galium aparine)", "experiment": "Preemergence herbicidal evaluation", "format": "in vivo", "conditions": "preemergence, rated 4-5 weeks after treatment", "outline": "(§3)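 Scores (0–9) reflect visual comparison with control plants for stand, vigor, malformation, size and chlorosis. Seeds in potting soil received a post-planting spray of compound in aqueous acetone and grew in a greenhouse until assessment 4–5 weeks later.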"}, "[5]": {"test_system": "GLXMAW (Soybean, Williams)", "experiment": "Preemergence herbicidal evaluation", "format": "in vivo, Glycine max, (L.) Merr. cv Williams", "conditions": "preemergence, rated 4-5 weeks after treatment"}, "[6]": {"test_system": "TRZAWR (Wheat, Winter, cv Riband)", "experiment": "Preemergence herbicidal evaluation", "format": "in vivo, Triticum aestivum", "conditions": "preemergence, rated 4-5 weeks after treatment", "outline": "as §3"}, "ORYSAT (Rice, Tebonnet)": {"test_system": "ORYSAT (Rice, Tebonnet)", "experiment": "Preemergence herbicidal evaluation", "format": "in vivo, Oryza sativa, (L.) Tebonnet", "conditions": "preemergence, rated 4-5 weeks after treatment"}, "[7]": {"test_system": "GLXMAW (Soybean, Williams)", "experiment": "Postemergence herbicidal evaluation", "format": "in vivo, Glycine max, (L.) Merr. cv Williams", "outline": "as §1"}, "CYPIR (Cyperus iria)": {"test_system": "CYPIR (Cyperus iria)", "experiment": "Flooded paddy, preemergence weed control", "format": "in vivo", "conditions": "rated 3-4 weeks after treatment, 0-9 rating scale", "outline": "as §2"}, "[8]": {"test_system": "IPOHE (Ipomoea hederacea)", "experiment": "Preemergence herbicidal evaluation", "format": "in vivo, (L.) Jacq.", "conditions": "preemergence, rated 4-5 weeks after treatment"}, "[9]": {"test_system": "SAGPY (Sagittaria pygmaea)", "experiment": "Flooded paddy, preemergence weed control", "format": "in vivo, L.", "conditions": "rated 3-4 weeks after treatment, 0-9 rating scale", "outline": "as §2"}, "GALAP (Galium aparine) [10]": {"test_system": "GALAP (Galium aparine)", "experiment": "Postemergence herbicidal evaluation", "format": "in vivo", "outline": "as §1"}, "[11]": {"test_system": "CASOB (Cassia obtusifolia)", "experiment": "Preemergence herbicidal evaluation", "format": "in vivo, L.", "conditions": "preemergence, rated 4-5 weeks after treatment", "outline": "as §3"}, "[12]": {"test_system": "CHEAL (Chenopodium album)", "experiment": "Preemergence herbicidal evaluation", "format": "in vivo, L.", "conditions": "preemergence, rated 4-5 weeks after treatment", "outline": "as §3"}, "[13]": {"test_system": "AMBEL (Ambrosia artemisifolia)", "experiment": "Preemergence herbicidal evaluation", "format": "in vivo, L.", "conditions": "preemergence, rated 4-5 weeks after treatment", "outline": "as §3"}, "[14]": {"test_system": "CASOB (Cassia obtusifolia)", "experiment": "Postemergence herbicidal evaluation", "format": "in vivo, L.", "outline": "as §1"}, "[15]": {"test_system": "CHEAL (Chenopodium album)", "experiment": "Postemergence herbicidal evaluation", "format": "in vivo, L.", "outline": "as §1"}, "[16]": {"test_system": "AMBEL (Ambrosia artemisifolia)", "experiment": "Postemergence herbicidal evaluation", "format": "in vivo, L.", "outline": "as §1"}, "[17]": {"test_system": "CYPSE (Cyperus serotinus)", "experiment": "Flooded paddy, preemergence weed control", "format": "in vivo, Rottb.", "conditions": "rated 3-4 weeks after treatment, 0-9 rating scale", "outline": "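Seeds or propagules were planted 0.5 cm deep in silt loam and flooded to 1.5–3 cm. Compounds in 50/50 v/v aqueous/acetone were pipetted into the flood water at about 0.0080 to 0.1250 kg/ha. After 3–4 weeks in the greenhouse, effect was rated visually on a 0–9 scale versus untreated control.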"}, "[18]": {"test_system": "ABUTH (Abutilon theophrasti)", "experiment": "Postemergence herbicidal evaluation", "format": "in vivo, Medic.", "outline": "as §1"}, "[19]": {"test_system": "ECHCG (Echinochloa crus-galli)", "experiment": "Postemergence herbicidal evaluation", "format": "in vivo, (L.) Beau", "outline": "as §1"}, "[20]": {"test_system": "IPOHE (Ipomoea hederacea)", "experiment": "Postemergence herbicidal evaluation", "format": "in vivo, (L.) Jacq.", "outline": "as §1"}}, "data": [{"smiles": "Cc1cccnc1-c1nsc2ccc(-n3c(=O)cc(C(F)(F)F)n(C)c3=O)cc12", "note": "[Compound 19, 1-methyl-3-[3-(3-methyl-2-pyridyl)-1,2-benzisothiazol-5-yl]-6-(trifluoromethyl)uracil]", "values": [{"measurement": "ZEAMX preemergence herbicidal rating", "setting": "ZEAMX (Corn, Field) [1]; Rate 0.0620 kg/ha", "result": 7.0}, {"measurement": "ZEAMX preemergence herbicidal rating", "setting": "ZEAMX (Corn, Field) [1]; Rate 0.1250 kg/ha", "result": 7.0}, {"measurement": "ZEAMX preemergence herbicidal rating", "setting": "ZEAMX (Corn, Field) [1]; Rate 0.2500 kg/ha", "result": 7.7}, {"measurement": "Postemergence herbicidal rating, ZEAMX", "setting": "ZEAMX (Corn, Field) [2]; rate 0.0320 kg/ha", "result": 5.3}, {"measurement": "Postemergence herbicidal rating, ZEAMX", "setting": "ZEAMX (Corn, Field) [2]; rate 0.0620 kg/ha", "result": 5.3}, {"measurement": "herbicidal rating, ECHORC", "setting": "[3]; rate 0.0080 kg/ha", "result": 2.0}, {"measurement": "herbicidal rating, ECHORC", "setting": "[3]; rate 0.0320 kg/ha", "result": 8.0}, {"measurement": "herbicidal rating, ECHORC", "setting": "[3]; rate 0.1250 kg/ha", "result": 9.0}, {"measurement": "GALAP preemergence herbicidal rating", "setting": "GALAP (Galium aparine) [4]; Rate 0.0620 kg/ha", "result": 0.5}, {"measurement": "GALAP preemergence herbicidal rating", "setting": "GALAP (Galium aparine) [4]; Rate 0.1250 kg/ha", "result": 6.0}, {"measurement": "GALAP preemergence herbicidal rating", "setting": "GALAP (Galium aparine) [4]; Rate 0.2500 kg/ha", "result": 9.0}, {"measurement": "GLXMAW preemergence herbicidal rating", "setting": "[5]; Rate 0.0620 kg/ha", "result": 6.3}, {"measurement": "GLXMAW preemergence herbicidal rating", "setting": "[5]; Rate 0.1250 kg/ha", "result": 6.7}, {"measurement": "GLXMAW preemergence herbicidal rating", "setting": "[5]; Rate 0.2500 kg/ha", "result": 7.7}, {"measurement": "TRZAWR preemergence herbicidal rating", "setting": "[6]; Rate 0.0620 kg/ha", "result": 5.5}, {"measurement": "TRZAWR preemergence herbicidal rating", "setting": "[6]; Rate 0.1250 kg/ha", "result": 8.0}, {"measurement": "TRZAWR preemergence herbicidal rating", "setting": "[6]; Rate 0.2500 kg/ha", "result": 8.5}, {"measurement": "ORYSAT preemergence herbicidal rating", "setting": "ORYSAT (Rice, Tebonnet); Rate 0.0620 kg/ha", "result": 5.3}, {"measurement": "ORYSAT preemergence herbicidal rating", "setting": "ORYSAT (Rice, Tebonnet); Rate 0.1250 kg/ha", "result": 7.0}, {"measurement": "ORYSAT preemergence herbicidal rating", "setting": "ORYSAT (Rice, Tebonnet); Rate 0.2500 kg/ha", "result": 8.0}, {"measurement": "Postemergence herbicidal rating, GLXMAW", "setting": "[7]; rate 0.0320 kg/ha", "result": 8.3}, {"measurement": "Postemergence herbicidal rating, GLXMAW", "setting": "[7]; rate 0.0620 kg/ha", "result": 8.0}, {"measurement": "herbicidal rating, CYPIR", "setting": "CYPIR (Cyperus iria); rate 0.0080 kg/ha", "result": 0.0}, {"measurement": "herbicidal rating, CYPIR", "setting": "CYPIR (Cyperus iria); rate 0.0320 kg/ha", "result": 5.0}, {"measurement": "herbicidal rating, CYPIR", "setting": "CYPIR (Cyperus iria); rate 0.1250 kg/ha", "result": 9.0}, {"measurement": "IPOHE preemergence herbicidal rating", "setting": "[8]; Rate 0.0620 kg/ha", "result": 9.0}, {"measurement": "IPOHE preemergence herbicidal rating", "setting": "[8]; Rate 0.1250 kg/ha", "result": 8.7}, {"measurement": "IPOHE preemergence herbicidal rating", "setting": "[8]; Rate 0.2500 kg/ha", "result": 9.0}, {"measurement": "herbicidal rating, SAGPY", "setting": "[9]; rate 0.0080 kg/ha", "result": 0.0}, {"measurement": "herbicidal rating, SAGPY", "setting": "[9]; rate 0.0320 kg/ha", "result": 2.5}, {"measurement": "herbicidal rating, SAGPY", "setting": "[9]; rate 0.1250 kg/ha", "result": 7.0}, {"measurement": "Postemergence herbicidal rating, GALAP", "setting": "GALAP (Galium aparine) [10]; rate 0.0320 kg/ha", "result": 3.5}, {"measurement": "Postemergence herbicidal rating, GALAP", "setting": "GALAP (Galium aparine) [10]; rate 0.0620 kg/ha", "result": 6.0}, {"measurement": "CASOB preemergence herbicidal rating", "setting": "[11]; Rate 0.0620 kg/ha", "result": 4.7}, {"measurement": "CASOB preemergence herbicidal rating", "setting": "[11]; Rate 0.1250 kg/ha", "result": 5.7}, {"measurement": "CASOB preemergence herbicidal rating", "setting": "[11]; Rate 0.2500 kg/ha", "result": 8.3}, {"measurement": "CHEAL preemergence herbicidal rating", "setting": "[12]; Rate 0.0620 kg/ha", "result": 9.0}, {"measurement": "CHEAL preemergence herbicidal rating", "setting": "[12]; Rate 0.1250 kg/ha", "result": 9.0}, {"measurement": "CHEAL preemergence herbicidal rating", "setting": "[12]; Rate 0.2500 kg/ha", "result": 9.0}, {"measurement": "AMBEL preemergence herbicidal rating", "setting": "[13]; Rate 0.0620 kg/ha", "result": 6.7}, {"measurement": "AMBEL preemergence herbicidal rating", "setting": "[13]; Rate 0.1250 kg/ha", "result": 9.0}, {"measurement": "AMBEL preemergence herbicidal rating", "setting": "[13]; Rate 0.2500 kg/ha", "result": 9.0}, {"measurement": "Postemergence herbicidal rating, CASOB", "setting": "[14]; rate 0.0320 kg/ha", "result": 1.5}, {"measurement": "Postemergence herbicidal rating, CASOB", "setting": "[14]; rate 0.0620 kg/ha", "result": 5.0}, {"measurement": "Postemergence herbicidal rating, CHEAL", "setting": "[15]; rate 0.0320 kg/ha", "result": 8.0}, {"measurement": "Postemergence herbicidal rating, CHEAL", "setting": "[15]; rate 0.0620 kg/ha", "result": 9.0}, {"measurement": "Postemergence herbicidal rating, AMBEL", "setting": "[16]; rate 0.0320 kg/ha", "result": 9.0}, {"measurement": "Postemergence herbicidal rating, AMBEL", "setting": "[16]; rate 0.0620 kg/ha", "result": 9.0}, {"measurement": "herbicidal rating, CYPSE", "setting": "[17]; rate 0.0080 kg/ha", "result": 0.0}, {"measurement": "herbicidal rating, CYPSE", "setting": "[17]; rate 0.0320 kg/ha", "result": 0.0}, {"measurement": "herbicidal rating, CYPSE", "setting": "[17]; rate 0.1250 kg/ha", "result": 6.5}, {"measurement": "Postemergence herbicidal rating, ABUTH", "setting": "[18]; rate 0.0320 kg/ha", "result": 9.0}, {"measurement": "Postemergence herbicidal rating, ABUTH", "setting": "[18]; rate 0.0620 kg/ha", "result": 9.0}, {"measurement": "Postemergence herbicidal rating, ECHCG", "setting": "[19]; rate 0.0320 kg/ha", "result": 2.0}, {"measurement": "Postemergence herbicidal rating, ECHCG", "setting": "[19]; rate 0.0620 kg/ha", "result": 3.0}, {"measurement": "Postemergence herbicidal rating, IPOHE", "setting": "[20]; rate 0.0320 kg/ha", "result": 8.0}, {"measurement": "Postemergence herbicidal rating, IPOHE", "setting": "[20]; rate 0.0620 kg/ha", "result": 9.0}]}]}
